# From patent publication US20250312320A1, “METHOD AND TREATMENT FOR OSTEOARTHRITIS AND DISEASES OF CHONDROCYTE HYPERTROPHY” (The Royal Veterinary College, priority 2022, published 2025)
# “Also recorded” adds a separate entry of the source.
# Tested on: C57/BL-6 bone marrow derived osteoclasts
# Assay: Primary osteoclast number and resorption on dentin discs
# Assay type: cell-based, mouse
# Details: 1 μM, N=8
# Experimental: Osteoclasts were isolated from the bone marrow of the long bones of 8-week old C57/BL-6 mice and cultured for 24 hours in osteoclast basal media (MEM supplemented with 10% FBS, 2 mM L-glutamine, 1% Ab/Am). After 24 hours, 1×10^6 osteoclasts were seeded onto dentin discs in osteoclast differentiation media (basal media supplemented with 100 nM PGE2, 200 ng/ml MCSF, 3 ng/ml RANKL pH 7.3) for 24 hours before addition of 1 μM BI1347 or DMSO for 3 days (N=8). On day 5 of culture, osteoclast resorption was initiated by addition of 10 mM hydrochloric acid to acidify differentiation media to pH 7.0 for 2 days. On day 7, discs were fixed in 2.5% glutaraldehyde, tartrate resistant acid phosphatase (TRAP) stained and imaged using Axiovert Microscope at ×10 magnification to observe osteoclast resorption.
# Pre-osteoclast and osteoclast numbers were counted using the automated counting method developed by Davies et al. 2021 (currently under review) using Ilastik software in Image J (Fiji, US). Resorption area on each disc was manually counted and analysed using Image J software.
smiles,measurement,value
CN(C)C(=O)Cn1cc(-c2ccc(-c3cncc4ccccc34)cc2)cn1 [BI1347],mature osteoclast number vs DMSO,no effect; also recorded: no change
same,"osteoclast resorptive activity, reduction vs DMSO",2.3 fold
same,pre-osteoclast number vs DMSO,no effect; also recorded: no change
